{"source": "patent US20250243196A1", "about": "“CITRON KINASE INHIBITORS” (The Cleveland Clinic Foundation, priority 2021, published 2025)", "assay_in_all_cases": "KinaseProfiler panel", "assay_type_in_all_cases": "biochemical", "settings_in_all_cases": "activity remaining", "key": {"Aurora-C(h)": {"molecular_target": "Aurora-C(h) (Homo sapiens (Human), UniProt Q9UQB9)"}, "CaMKK1(h)": {"molecular_target": "CaMKK1(h) (Homo sapiens (Human), UniProt Q8N5S9)", "design": "dose or concentration left out as unconfirmed"}, "CDKL2(h)": {"molecular_target": "CDKL2(h) (Homo sapiens (Human), UniProt Q92772)", "sequence (Q92772 whole entry)": "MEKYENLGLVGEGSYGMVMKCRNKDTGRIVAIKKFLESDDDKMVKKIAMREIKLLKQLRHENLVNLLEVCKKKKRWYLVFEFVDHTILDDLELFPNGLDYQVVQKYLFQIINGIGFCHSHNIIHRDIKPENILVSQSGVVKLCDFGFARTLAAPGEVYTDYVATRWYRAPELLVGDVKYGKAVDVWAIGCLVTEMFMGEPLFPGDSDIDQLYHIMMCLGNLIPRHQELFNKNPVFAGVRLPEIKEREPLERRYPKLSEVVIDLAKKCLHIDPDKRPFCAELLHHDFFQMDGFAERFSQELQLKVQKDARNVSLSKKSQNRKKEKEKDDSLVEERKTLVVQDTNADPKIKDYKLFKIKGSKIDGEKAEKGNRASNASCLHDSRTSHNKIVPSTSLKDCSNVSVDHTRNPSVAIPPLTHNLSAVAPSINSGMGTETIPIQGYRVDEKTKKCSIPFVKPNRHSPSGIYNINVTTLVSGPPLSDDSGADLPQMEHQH", "design": "dose or concentration left out as unconfirmed"}, "CHK1(h)": {"molecular_target": "CHK1(h) (Homo sapiens (Human), UniProt O14757)", "design": "dose or concentration left out as unconfirmed"}, "cKit(h)": {"molecular_target": "cKit(h) (Homo sapiens (Human), UniProt P10721)", "design": "dose or concentration left out as unconfirmed"}, "CLK4(h)": {"molecular_target": "CLK4(h) (Homo sapiens (Human), UniProt Q9HAZ1)", "design": "dose or concentration left out as unconfirmed"}, "EphA8(h)": {"molecular_target": "EphA8(h) (Homo sapiens (Human), UniProt P29322)", "design": "dose or concentration left out as unconfirmed"}, "EphB1(h)": {"molecular_target": "EphB1(h) (Homo sapiens (Human), UniProt P54762)", "design": "dose or concentration left out as unconfirmed"}, "FGFR2(h)": {"molecular_target": "FGFR2(h) (Homo sapiens (Human), UniProt P21802)", "design": "dose or concentration left out as unconfirmed"}, "Flt3(h)": {"molecular_target": "Flt3(h) (Homo sapiens (Human), UniProt P36888)", "sequence (P36888 27-993)": "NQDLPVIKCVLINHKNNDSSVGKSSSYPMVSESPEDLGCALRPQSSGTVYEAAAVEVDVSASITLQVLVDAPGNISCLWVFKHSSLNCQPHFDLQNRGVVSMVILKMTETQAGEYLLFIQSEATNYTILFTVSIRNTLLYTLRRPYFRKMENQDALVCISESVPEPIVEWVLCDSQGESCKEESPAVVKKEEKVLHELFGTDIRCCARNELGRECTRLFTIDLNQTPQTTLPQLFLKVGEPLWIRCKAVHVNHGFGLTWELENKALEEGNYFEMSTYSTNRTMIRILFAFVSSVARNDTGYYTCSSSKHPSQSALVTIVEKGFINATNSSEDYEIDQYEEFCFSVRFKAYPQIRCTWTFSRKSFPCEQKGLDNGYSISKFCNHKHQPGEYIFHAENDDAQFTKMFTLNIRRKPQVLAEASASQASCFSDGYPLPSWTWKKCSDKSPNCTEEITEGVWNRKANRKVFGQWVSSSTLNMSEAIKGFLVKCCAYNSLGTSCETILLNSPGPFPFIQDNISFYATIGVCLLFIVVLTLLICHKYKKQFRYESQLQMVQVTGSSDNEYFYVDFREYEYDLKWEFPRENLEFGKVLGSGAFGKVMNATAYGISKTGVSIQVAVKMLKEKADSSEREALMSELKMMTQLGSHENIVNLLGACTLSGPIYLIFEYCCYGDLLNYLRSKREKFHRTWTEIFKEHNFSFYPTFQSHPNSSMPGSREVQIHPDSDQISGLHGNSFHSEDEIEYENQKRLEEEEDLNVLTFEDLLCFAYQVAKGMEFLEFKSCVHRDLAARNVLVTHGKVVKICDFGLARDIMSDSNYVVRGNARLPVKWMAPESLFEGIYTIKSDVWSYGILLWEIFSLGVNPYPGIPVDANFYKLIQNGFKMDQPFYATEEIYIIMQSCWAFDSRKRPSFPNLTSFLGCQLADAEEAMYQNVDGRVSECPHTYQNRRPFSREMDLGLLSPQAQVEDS", "design": "dose or concentration left out as unconfirmed"}, "GRK7(h)": {"molecular_target": "GRK7(h) (Homo sapiens (Human), UniProt Q8WTQ7)", "design": "dose or concentration left out as unconfirmed"}, "IKKε(h)": {"molecular_target": "IKKε(h) (Homo sapiens (Human), UniProt Q14164)", "sequence (Q14164 whole entry)": "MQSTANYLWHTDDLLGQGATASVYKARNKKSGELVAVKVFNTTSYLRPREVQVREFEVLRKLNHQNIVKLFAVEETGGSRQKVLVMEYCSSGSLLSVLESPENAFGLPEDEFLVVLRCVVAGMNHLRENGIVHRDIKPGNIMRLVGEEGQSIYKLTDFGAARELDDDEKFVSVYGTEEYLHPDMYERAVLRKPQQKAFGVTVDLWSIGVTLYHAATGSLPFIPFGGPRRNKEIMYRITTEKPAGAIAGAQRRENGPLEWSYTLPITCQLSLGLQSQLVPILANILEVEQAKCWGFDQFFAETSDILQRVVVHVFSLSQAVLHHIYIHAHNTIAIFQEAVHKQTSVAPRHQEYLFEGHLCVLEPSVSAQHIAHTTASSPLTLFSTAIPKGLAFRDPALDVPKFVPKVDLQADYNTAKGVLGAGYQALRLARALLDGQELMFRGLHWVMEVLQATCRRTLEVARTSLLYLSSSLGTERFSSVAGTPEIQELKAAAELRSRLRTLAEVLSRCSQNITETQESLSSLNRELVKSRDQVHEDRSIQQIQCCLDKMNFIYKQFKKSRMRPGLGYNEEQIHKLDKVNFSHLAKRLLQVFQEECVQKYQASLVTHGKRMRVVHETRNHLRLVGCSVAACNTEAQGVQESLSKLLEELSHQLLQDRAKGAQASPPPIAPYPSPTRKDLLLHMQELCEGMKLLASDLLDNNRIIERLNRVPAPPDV", "design": "dose or concentration left out as unconfirmed"}, "LRRK2(h)": {"molecular_target": "LRRK2(h) (Homo sapiens (Human), UniProt Q5S007)", "design": "dose or concentration left out as unconfirmed"}, "MARK1(h)": {"molecular_target": "MARK1(h) (Homo sapiens (Human), UniProt Q9P0L2)", "design": "dose or concentration left out as unconfirmed"}, "MEKK2(h)": {"molecular_target": "MEKK2(h) (Homo sapiens (Human), UniProt Q9Y2U5)"}, "MYLK2(h)": {"molecular_target": "MYLK2(h) (Homo sapiens (Human), UniProt Q9H1R3)", "design": "dose or concentration left out as unconfirmed"}, "NEK3(h)": {"molecular_target": "NEK3(h) (Homo sapiens (Human), UniProt P51956)", "design": "dose or concentration left out as unconfirmed"}, "NEK4(h)": {"molecular_target": "NEK4(h) (Homo sapiens (Human), UniProt P51957)", "design": "dose or concentration left out as unconfirmed"}, "NLK(h)": {"molecular_target": "NLK(h) (Homo sapiens (Human), UniProt Q9UBE8)"}, "PAK6(h)": {"molecular_target": "PAK6(h) (Homo sapiens (Human), UniProt Q9NQU5)", "design": "dose or concentration left out as unconfirmed"}, "PAR-1Bα(h)": {"molecular_target": "PAR-1Bα(h) (Homo sapiens (Human), UniProt Q7KZI7)", "sequence (Q7KZI7 other isoform, or with tags, fused parts or gaps isoform Q7KZI7-4)": "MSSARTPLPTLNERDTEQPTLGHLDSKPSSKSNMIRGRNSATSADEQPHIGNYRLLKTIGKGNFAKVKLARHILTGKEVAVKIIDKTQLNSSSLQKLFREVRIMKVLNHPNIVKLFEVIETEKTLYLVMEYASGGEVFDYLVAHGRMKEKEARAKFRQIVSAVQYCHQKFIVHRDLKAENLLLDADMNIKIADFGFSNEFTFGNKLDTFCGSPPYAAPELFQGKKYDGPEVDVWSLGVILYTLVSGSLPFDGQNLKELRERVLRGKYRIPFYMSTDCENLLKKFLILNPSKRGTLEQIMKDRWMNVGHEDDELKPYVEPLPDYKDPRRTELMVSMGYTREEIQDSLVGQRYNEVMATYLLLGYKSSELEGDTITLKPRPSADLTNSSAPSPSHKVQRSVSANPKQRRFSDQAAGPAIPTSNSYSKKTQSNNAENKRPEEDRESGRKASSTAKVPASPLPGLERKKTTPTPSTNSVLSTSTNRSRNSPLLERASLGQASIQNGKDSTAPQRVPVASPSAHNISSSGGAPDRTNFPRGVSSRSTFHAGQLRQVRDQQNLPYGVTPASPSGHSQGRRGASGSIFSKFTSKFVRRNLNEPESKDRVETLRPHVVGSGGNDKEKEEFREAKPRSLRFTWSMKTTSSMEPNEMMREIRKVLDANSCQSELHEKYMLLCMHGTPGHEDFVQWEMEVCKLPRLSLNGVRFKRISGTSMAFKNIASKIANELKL", "design": "dose or concentration left out as unconfirmed"}, "PDGFRβ(h)": {"molecular_target": "PDGFRβ(h) (Homo sapiens (Human), UniProt P09619)", "sequence (P09619 33-1106)": "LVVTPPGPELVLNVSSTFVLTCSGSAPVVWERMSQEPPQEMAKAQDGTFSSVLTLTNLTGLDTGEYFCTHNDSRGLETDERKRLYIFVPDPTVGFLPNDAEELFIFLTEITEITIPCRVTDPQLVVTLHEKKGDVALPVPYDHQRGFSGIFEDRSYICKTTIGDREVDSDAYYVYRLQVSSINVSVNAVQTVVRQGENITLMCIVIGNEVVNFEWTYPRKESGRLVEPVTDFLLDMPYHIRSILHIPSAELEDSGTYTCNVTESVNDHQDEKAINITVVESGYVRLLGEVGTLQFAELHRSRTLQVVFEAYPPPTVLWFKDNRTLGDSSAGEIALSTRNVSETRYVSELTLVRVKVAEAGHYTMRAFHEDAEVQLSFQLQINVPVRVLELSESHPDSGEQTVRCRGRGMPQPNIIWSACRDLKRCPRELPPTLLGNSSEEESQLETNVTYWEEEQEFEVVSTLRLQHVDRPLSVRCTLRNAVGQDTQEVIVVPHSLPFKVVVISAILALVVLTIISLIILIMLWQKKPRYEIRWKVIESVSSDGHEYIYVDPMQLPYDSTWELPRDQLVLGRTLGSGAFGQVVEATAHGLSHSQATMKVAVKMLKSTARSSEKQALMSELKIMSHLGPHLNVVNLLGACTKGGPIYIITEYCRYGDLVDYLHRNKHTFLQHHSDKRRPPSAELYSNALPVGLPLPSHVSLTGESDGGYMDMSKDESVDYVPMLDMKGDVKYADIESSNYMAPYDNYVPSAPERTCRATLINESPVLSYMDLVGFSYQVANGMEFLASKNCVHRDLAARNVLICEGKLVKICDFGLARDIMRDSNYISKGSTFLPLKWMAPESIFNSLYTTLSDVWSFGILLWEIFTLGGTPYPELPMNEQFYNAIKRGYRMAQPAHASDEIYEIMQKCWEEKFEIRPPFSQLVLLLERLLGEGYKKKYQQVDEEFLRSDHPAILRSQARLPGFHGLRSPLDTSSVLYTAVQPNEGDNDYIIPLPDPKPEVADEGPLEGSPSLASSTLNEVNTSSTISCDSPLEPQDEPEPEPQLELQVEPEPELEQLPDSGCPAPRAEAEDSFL", "design": "dose or concentration left out as unconfirmed"}, "PDK1(h)": {"molecular_target": "PDK1(h) (Homo sapiens (Human), UniProt O15530)", "design": "dose or concentration left out as unconfirmed"}, "PKBβ(h)": {"molecular_target": "PKBβ(h) (Homo sapiens (Human), UniProt P31751)", "design": "dose or concentration left out as unconfirmed"}, "PKG1α(h)": {"molecular_target": "PKG1α(h) (Homo sapiens (Human), UniProt Q13976)", "design": "dose or concentration left out as unconfirmed"}, "Plk4(h)": {"molecular_target": "Plk4(h) (Homo sapiens (Human), UniProt O00444)", "sequence (O00444 whole entry)": "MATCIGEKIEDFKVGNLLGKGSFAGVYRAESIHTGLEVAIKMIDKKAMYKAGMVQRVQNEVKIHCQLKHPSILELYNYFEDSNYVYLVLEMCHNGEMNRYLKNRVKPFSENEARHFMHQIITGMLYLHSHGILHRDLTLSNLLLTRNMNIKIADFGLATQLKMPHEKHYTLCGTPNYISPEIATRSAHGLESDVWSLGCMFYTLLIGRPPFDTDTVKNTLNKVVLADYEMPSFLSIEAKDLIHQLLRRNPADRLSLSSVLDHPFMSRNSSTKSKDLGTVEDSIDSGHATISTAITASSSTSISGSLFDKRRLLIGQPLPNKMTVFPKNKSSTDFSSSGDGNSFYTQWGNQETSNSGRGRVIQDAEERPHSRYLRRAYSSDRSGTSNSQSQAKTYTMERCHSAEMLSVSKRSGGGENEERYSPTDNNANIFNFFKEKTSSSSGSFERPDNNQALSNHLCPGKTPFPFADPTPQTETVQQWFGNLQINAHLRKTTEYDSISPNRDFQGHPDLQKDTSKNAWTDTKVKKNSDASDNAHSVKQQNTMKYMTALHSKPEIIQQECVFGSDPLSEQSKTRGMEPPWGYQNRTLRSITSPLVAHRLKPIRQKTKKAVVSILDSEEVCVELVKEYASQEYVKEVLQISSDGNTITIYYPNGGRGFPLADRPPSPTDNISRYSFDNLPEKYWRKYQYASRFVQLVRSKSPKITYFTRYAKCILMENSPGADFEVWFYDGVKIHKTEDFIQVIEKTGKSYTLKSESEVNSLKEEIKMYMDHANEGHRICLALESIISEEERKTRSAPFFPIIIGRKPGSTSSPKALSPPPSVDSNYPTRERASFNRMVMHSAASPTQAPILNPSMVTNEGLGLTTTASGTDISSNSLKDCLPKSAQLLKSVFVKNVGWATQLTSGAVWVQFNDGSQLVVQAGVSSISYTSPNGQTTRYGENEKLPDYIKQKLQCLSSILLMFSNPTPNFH", "design": "dose or concentration left out as unconfirmed"}, "SRPK1(h)": {"molecular_target": "SRPK1(h) (Homo sapiens (Human), UniProt Q96SB4)", "design": "dose or concentration left out as unconfirmed"}, "STK39(h)": {"molecular_target": "STK39(h) (Homo sapiens (Human), UniProt Q9UEW8)"}}, "data": [{"smiles": "Cc1cc2c(-c3ccc(NC(=O)[C@H](N)CC(C)(C)C)cc3C)ccnc2[nH]1", "note": "[Compound F-90, (2R)-2-Amino-4,4-dimethyl-N-[3-methyl-4-(2-methyl-1H-pyrrolo[2,3-b]pyridin-4-yl)phenyl]pentanamide]", "values": [{"measurement": "% Activity", "setting": "Aurora-C(h)", "value": 94, "unit": "%"}, {"measurement": "% Activity", "setting": "CaMKK1(h)", "value": 89, "unit": "%"}, {"measurement": "% Activity", "setting": "CDKL2(h)", "value": 80, "unit": "%"}, {"measurement": "% Activity", "setting": "CHK1(h)", "value": 108, "unit": "%"}, {"measurement": "% Activity", "setting": "cKit(h)", "value": 85, "unit": "%"}, {"measurement": "% Activity", "setting": "CLK4(h)", "value": 85, "unit": "%"}, {"measurement": "% Activity", "setting": "EphA8(h)", "value": 115, "unit": "%"}, {"measurement": "% Activity", "setting": "EphB1(h)", "value": 83, "unit": "%"}, {"measurement": "% Activity", "setting": "FGFR2(h)", "value": 89, "unit": "%"}, {"measurement": "% Activity", "setting": "Flt3(h)", "value": 84, "unit": "%"}, {"measurement": "% Activity", "setting": "GRK7(h)", "value": 98, "unit": "%"}, {"measurement": "% Activity", "setting": "IKKε(h)", "value": 87, "unit": "%"}, {"measurement": "% Activity", "setting": "LRRK2(h)", "value": 100, "unit": "%"}, {"measurement": "% Activity", "setting": "MARK1(h)", "value": 106, "unit": "%"}, {"measurement": "% Activity", "setting": "MEKK2(h)", "value": 122, "unit": "%"}, {"measurement": "% Activity", "setting": "MYLK2(h)", "value": 76, "unit": "%"}, {"measurement": "% Activity", "setting": "NEK3(h)", "value": 110, "unit": "%"}, {"measurement": "% Activity", "setting": "NEK4(h)", "value": 90, "unit": "%"}, {"measurement": "% Activity", "setting": "NLK(h)", "value": 98, "unit": "%"}, {"measurement": "% Activity", "setting": "PAK6(h)", "value": 101, "unit": "%"}, {"measurement": "% Activity", "setting": "PAR-1Bα(h)", "value": 88, "unit": "%"}, {"measurement": "% Activity", "setting": "PDGFRβ(h)", "value": 105, "unit": "%"}, {"measurement": "% Activity", "setting": "PDK1(h)", "value": 105, "unit": "%"}, {"measurement": "% Activity", "setting": "PKBβ(h)", "value": 109, "unit": "%"}, {"measurement": "% Activity", "setting": "PKG1α(h)", "value": 118, "unit": "%"}, {"measurement": "% Activity", "setting": "Plk4(h)", "value": 92, "unit": "%"}, {"measurement": "% Activity", "setting": "SRPK1(h)", "value": 95, "unit": "%"}, {"measurement": "% Activity", "setting": "STK39(h)", "value": 102, "unit": "%"}]}]}
